Where “and” joins values, the source holds several entries; their conditions need not be identical. Equal values may be shown once.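 Growth conditions: 96-well plates. Treatment: test compound, 48 hours, 5 concentrations. Analysis: linear interpolation between bracketing concentrations; unreached endpoints set to highest concentration. Here, GI50 denotes the concentration required for 50% inhibition of growth. Definition used: TGI = concentration required for complete inhibition of growth.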
How the values were obtained:
Experiment in all cases: NCI tumour cell line growth inhibition, 48 h
DMS 273 small cell lung = test system: DMS 273 small cell lung
EKVX NSCLC = test system: EKVX NSCLC
HOP-62 NSCLC = test system: HOP-62 NSCLC
KM20L2 colon = test system: KM20L2 colon
MALME-3M melanoma = test system: MALME-3M melanoma
NCI-H226 lung = test system: NCI-H226 lung
SK-MEL-28 melanoma = test system: SK-MEL-28 melanoma
SK-OV-3 ovarian = test system: SK-OV-3 ovarian
SN12C renal = test system: SN12C renal
SR leukemia = test system: SR leukemia

Row | Compound | GI50 (DMS 273 small cell lung) [µM] | TGI (DMS 273 small cell lung) | GI50 (EKVX NSCLC) [µM] | TGI (EKVX NSCLC) | GI50 (HOP-62 NSCLC) [µM] | TGI (HOP-62 NSCLC) | GI50 (KM20L2 colon) [µM] | TGI (KM20L2 colon) | GI50 (MALME-3M melanoma) [µM] | TGI (MALME-3M melanoma) | GI50 (NCI-H226 lung) [µM] | TGI (NCI-H226 lung) [µM] | GI50 (SK-MEL-28 melanoma) [µM] | TGI (SK-MEL-28 melanoma) | GI50 (SK-OV-3 ovarian) [µM] | TGI (SK-OV-3 ovarian) | GI50 (SN12C renal) [µM] | TGI (SN12C renal) | GI50 (SR leukemia) [µM] | TGI (SR leukemia) [µM]
1 | C[CH2][Sn]([CH2]C)([O]C(=O)c1ccc(F)cc1)[O][Sn]([CH2]C)([CH2]C)[O]C(=O)c1ccc(F)cc1 | > 100 | > 100 µM | > 100 | > 100 µM | > 100 | > 100 µM | > 100 | > 100 µM | 16.9 | 32 µM | 30.8 | 87.5 | 33.9 | > 100 µM | > 100 | > 100 µM | 67.2 | > 100 µM | 41.1 | > 100
2 | CCOC(=O)NC1CC2CCC1(OC)C=C2C (configuration not stated) |  | > 100 µM |  | > 100 µM |  | > 100 µM |  | > 100 µM |  | > 100 µM |  | > 100 |  | > 100 µM |  | > 100 µM |  | > 100 µM |  | > 100
3 | COC(=O)Cc1cc(=O)n2c([nH]c3ccccc32)c1C#N |  | > 100 µM |  | > 100 µM |  | > 100 µM |  | > 100 µM |  | > 100 µM |  | > 100 |  | > 100 µM |  | > 100 µM |  | > 100 µM |  | > 100
4 | c1ccc2c(CNCCCCCCCCCCCCNCc3cccc4ccccc34)cccc2c1 |  | > 100 µM |  | 9.59 µM |  | 4.56 µM |  | 3.37 µM |  | 3.66 µM |  | 4.57 |  | 3.38 µM |  | 26.5 µM |  | 13.6 µM |  | 2.69
5 | CCCCCCCCCCCCC(CCCCCCCCCCCC)OP(=O)(O)O |  | > 100 µM |  | > 100 µM |  | > 100 µM |  | > 100 µM |  | > 100 µM |  | > 100 |  | > 100 µM |  | > 100 µM |  | > 100 µM |  | > 100
6 | O=C(O)CCSC(=S)Nc1ccc([N+](=O)[O-])cc1 |  | > 100 µM |  | > 100 µM |  | > 100 µM |  | > 100 µM |  | > 100 µM |  | > 100 |  | > 100 µM |  | > 100 µM |  | > 100 µM |  | 52.9
7 | O=C(Cc1ccccc1)NS(=O)(=O)c1ccccc1 |  | > 100 µM |  | > 100 µM |  | > 100 µM |  | > 100 µM |  | > 100 µM |  | > 100 |  | > 100 µM |  | > 100 µM |  | > 100 µM |  | > 100
8 | Cc1ccc(N2C(=O)C(Cl)=C(Cl)C2=O)cc1 |  | > 100 µM |  | 39.2 µM |  | > 100 µM |  | 53.6 µM |  | 33.7 µM |  | > 100 |  | 31.5 µM |  | > 100 µM |  | 33.7 µM |  | 54.2
9 | CC1=Nc2ccccc2C12C(c1ccccc1)C(c1ccccc1)C(=O)N1c3ccccc3CC12 (configuration not stated) |  | > 100 µM |  | > 100 µM |  | > 100 µM |  | > 100 µM |  | > 100 µM |  | > 100 |  | > 100 µM |  | > 100 µM |  | > 100 µM |  | > 100
10 | CCCCCC/C=C1\CCC(CN(C)C)C1=O (configuration not stated) |  | 11.4 µM |  | 42.3 µM |  | 35.1 µM |  | 23.3 µM |  | 20.7 µM |  | 36.5 |  | 12 µM |  | 34.7 µM |  | 8.74 µM |  | 11.7
11 | FC(F)(F)c1nc(-c2ccccc2)oc1Sc1oc(-c2ccccc2)nc1C(F)(F)F |  | > 100 µM |  | > 100 µM |  | > 100 µM |  | > 100 µM |  | > 100 µM |  | > 100 |  |  |  | > 100 µM |  | > 100 µM |  | > 100
12 | Cn1sc2ccccc2c1=S |  | 17.6 µM |  | 27.6 µM |  | 24.5 µM |  | 28.8 µM |  | 22.9 µM |  | 53.4 |  | 22 µM |  | > 59.8 µM |  | 18.2 µM |  | 38.7
13 | Nc1nc(=Nc2ccccc2)ss1 |  | > 100 µM |  | > 100 µM |  | > 100 µM |  | > 100 µM |  | > 100 µM |  | > 100 |  | > 100 µM |  | > 100 µM |  | > 100 µM |  | > 100
14 | COc1ccccc1NC(=O)C(CC(C(=O)Nc1ccccc1OC)/C(C)=N/NC(=O)c1ccccc1O)/C(C)=N/NC(=O)c1ccccc1O (configuration not stated) |  | > 100 µM |  | > 100 µM |  | > 100 µM |  | > 100 µM |  | > 100 µM |  | > 100 |  | > 100 µM |  | > 100 µM |  | > 100 µM |  | 
15 | COC(C)(C)[C@H](O)C(O)CC(C)[C@@H]1CCC23CC12CCC1[C@@]2(C)CCC(OC(C)=O)C(C)(C)C2CC(OC2OC(COC(C)=O)C(O)C(O)C2O)[C@]13C (some centres not stated) | 7.7 | 10.2 µM and 23.4 µM | 10.9 | 15.4 µM and 24.7 µM |  | 17.2 µM and 23.9 µM | 2.63 | 2.12 µM and 7.94 µM | 12.8 | 17.1 µM and 26 µM |  | 16.9 | 5.41 | 12.2 µM and 18.9 µM | 7.76 | 17.7 µM and 20.4 µM | 6.29 | 10.6 µM and 19.4 µM |  | 
16 | O=C(C=Nc1ccccc1C(=O)[O-])c1cccs1.O=C(C=Nc1ccccc1C(=O)[O-])c1cccs1.[Zn+2] |  | > 100 µM |  |  |  | > 100 µM |  | > 100 µM |  | > 10 µM |  |  |  | > 100 µM |  | 37.9 µM |  | > 10 µM |  | > 100
17 | CC[CH2][Sn]([CH2]CC)([O]C(=O)Cc1ccc(F)cc1)[O][Sn]([CH2]CC)([CH2]CC)[O]C(=O)Cc1ccc(F)cc1 | 0.205 | 1.13 µM | 0.569 | 1.99 µM | 1.25 | 2.69 µM | 0.662 | 1.98 µM | 0.102 | 0.291 µM | 0.243 | 0.813 | 0.157 | 0.446 µM | 0.774 | 2.11 µM | 0.262 | 1 µM | 0.0781 | 5.03
